Assay [1] concerns leukaemic stem cell (LSC) compartment within the KG1a cell line. Kind of assay: Immunophenotypic identification of the leukaemic stem cell compartment. The following applies: 72 h, for compound A at 1 mM and above. Type of assay: cell-based. Here is the method: KG1a cells were cultured for 72 h in the presence of a wide range of concentrations of each compound assayed. Cells were then harvested and labelled with a cocktail of anti-lineage antibodies (PE-cy7), anti-CD34 (FITC), anti-CD38 (PE) and anti-CD123 (PERCP cy5). The sub-population expressing a LSC phenotype were subsequently identified and were expressed as a percentage of all viable cells left in the culture. The percentages of stem cells remaining were then plotted on a dose-response graph and the effects of the compounds were compared with each other, and with the parent nucleoside.
The data obtained in these experiments were evaluated using one way ANOVA. All data was confirmed as Gaussian or a Gaussian approximation using the omnibus K2 test. LD50 values were calculated from the non-linear regression and line of best-fit analysis of the sigmoidal dose-response curves. All statistical analyses were performed using Graphpad Prism 6.0 software (Graphpad Software Inc., San Diego, Calif.).

The subject of assay [2] is MiaPaCa-2. Nature of the assay: Solid tumour and haematological malignancy assay (CellTiterGlo). Type of assay: cell-based. To be noted: Homo sapiens, MIA PaCa-2, 72 h. As for the experimental part: (§1) In vitro viability assay were performed to assess the effects of compounds on cell viability in selected cell lines over 72 hr using the CellTiterGlo (CTG, Promega-G7573) assay. […] Cell viability assay using CellTiterGlo in 96-well plate were performed. Compound treatment 72 hrs, standard growth conditions, duplicates. Compounds were dissolved to 40 mM with thawed 100%. […] After compounds were dissolved in media, media containing compounds were warmed to 37° C. in incubator and then compounds in media were added to cell plates ([…]) in duplicates. […] All compound solubilities were checked and recorded again, then the plates were transferred to CO2 tissue culture incubator immediately and incubated for 3 days. DMSO final concentration is 0.5%.
(Cellular ATP, detected with luciferase, serves as a proxy for viable cell number.)

Assay [3] deals with K562. The assay is described as above. Type of assay: cell-based. The following applies: Homo sapiens, K562, 72 h. As for the experimental part: as §1
For assay [4], the system named is HT29. The description is as above. Type of assay: cell-based. To be noted: Homo sapiens, HT-29, 72 h. As for the experimental part: as §1
The subject of assay [5] is HL-60. The assay is described as above. To be noted: Homo sapiens, HL-60, 72 h. Type of assay: cell-based. Here is the method:
as §1

Assay [6] relates to HepG2. The assay is described as above. Type of assay: cell-based. The following applies: Homo sapiens, HepG2, 72 h. As for the experimental part:
as §1

The test system of assay [7] is MCF7. Described as above. The following applies: Homo sapiens, MCF7, 72 h. Type of assay: cell-based. Here is the method: as §1
For assay [8], the system named is CCRFCEM. Described as above. Type of assay: cell-based. To be noted: Homo sapiens, CCRF-CEM, 72 h. As for the experimental part:
as §1

Assay [9] deals with HEL92.1.7. Described as above. Type of assay: cell-based. To be noted: Homo sapiens, HEL 92.1.7, 72 h. As for the experimental part: as §1
In assay [10] the test system is KG-1. The assay is described as above. Type of assay: cell-based. The following applies: Homo sapiens, KG-1, 72 h. As for the experimental part: as §1
Assay [11] has as its system CCRF-CEM. Nature of the assay: CellTiterGlo viability assay, initial screening. Type of assay: cell-based. To be noted: Homo sapiens, 72 h, read-out: IC50 (relative IC50). As for the experimental part:
(§2) In vitro viability assays were performed to assess the effects of compounds on cell viability in 7 selected cell lines over 72 hr using the CellTiterGlo (CTG, Promega-G7573) assay. The tests were performed in duplicates with treatment of compounds at 9 points, 3.16 folds titration in 96 well plates over ˜72 hr. The compound starting concentrations were […]. Cell viability assay using CellTiterGlo in 96-well plate were performed. The compound treatment was 72 hrs, under standard growth conditions, and in duplicate. Compounds were dissolved to 40 mM with thawed […]. Compounds were serially diluted at 3.16 fold in thawed DMSO, and warmed to 37° C. before being dissolved in media (2 μl+200 μl). After compounds were dissolved in media (media was also warmed to 37° C.). Media containing compounds were warmed to 37° C. in incubator and then compounds in media were added to cell plates (50 μl+50 μl), in duplicates. The compounds final concentrations were from […] to 19.9 nM. All compound solubilities were checked and recorded again, then the plates were transferred to CO2 tissue culture incubator immediately and incubated for 3 days. DMSO final concentration is 0.5%.

Assay [12] has as its system K562. Nature of the assay: CellTiterGlo viability assay, initial screening. Type of assay: cell-based. The following applies: Homo sapiens, K562, 72 h, read-out: IC50 (relative IC50). As for the experimental part:
as §2

The test system of assay [13] is HL-60. Nature of the assay: CellTiterGlo viability assay, initial screening. To be noted: Homo sapiens, HL-60, 72 h, read-out: IC50 (relative IC50). Type of assay: cell-based. Here is the method: as §2
In assay [14] the test system is MOLT-4. Nature of the assay: CellTiterGlo viability assay, initial screening. Type of assay: cell-based. To be noted: Homo sapiens, MOLT-4, 72 h, read-out: IC50 (relative IC50). As for the experimental part:
as §2

Assay [15] deals with HepG2. Kind of assay: CellTiterGlo viability assay, initial screening. Type of assay: cell-based. The following applies: Homo sapiens, HepG2, 72 h, read-out: IC50 (relative IC50). Here is the method: as §2
Assay [16] relates to MCF-7. Nature of the assay: CellTiterGlo viability assay, initial screening. Type of assay: cell-based. The following applies: Homo sapiens, MCF7, 72 h, read-out: IC50 (relative IC50). Here is the method:
as §2

For assay [17], the system named is KG-1. Nature of the assay: CellTiterGlo viability assay, initial screening. Type of assay: cell-based. To be noted: Homo sapiens, KG-1, 72 h, read-out: IC50 (relative IC50). Here is the method:
as §2

The test system of assay [18] is CCRF-CEM (TdT positive CEM). Nature of the assay: ATP (ViaLight plus) cytotoxicity assay. Type of assay: cell-based, Human. To be noted: CEM (TdT+ve). Here is the method: (§3) Certain compounds of the invention were subjected to further studies to test the cytotoxic activity of certain compounds of the invention and also to measure their activity against 4 haematological cancer cell lines • TdT positive CEM (Human ALL) • TdT negative K562 (Human CML) • TdT negative H1-60 (Human ANLL) • RL (CRL-2261) non-HD lymphoma • The concentrations of the active metabolite dATP (Cordycepin triphosphate) in these cell lines was also measured. • The cytotoxic activity and the intracellular 3′-dATP concentrations were also studied in the presence of hENT1, Adenosine Kinase (AK) and Adenosine Deaminase pharmacological inhibitors in CEM and RL cancer cell lines. Said inhibitors that mimic known cancer resistance mechanisms. Methods Cell Culture
(§4) HL-60 (ATCC® CCL-240™), K562 (ATCC® CCL-243™), CCRF-CEM (ATCC® CRM-CCL-119™) and RL (ATCC® CRL-2261™) leukaemia cell lines, obtained from the American Type Culture Collection (ATCC), Middlesex. HL-60 and K562 cell lines are deoxynucleotidyl transferase-negative (TdT-ve), whereas CCRF-CEM cell line is TdT+ve.
(§5) HL-60, K562, CCRF-CEM and RL cell lines were cultured in RPMI-1640 medium (Sigma Aldrich, UK), which were supplemented with 10% Fetal Bovine Serum (FBS) (PAA Laboratories), 1% amphotericin B (5.5 ml) and 1% penicillin/streptomycin (5.5 ml) (PAA Laboratories) and grown in flasks at 37° C. incubator with 5% CO2.
(§6) The amount of ATP was used as a measurement of cell number and cell viability. ATP ViaLight™ plus assay kit (Lonza, USA: Product No. LT07-121) to detect ATP in cells treated in luminescence compatible 96 well plates (initial concentration of cells was 1×10^4 cells/well) with cordycepin and ProTides at concentrations of: 0, 0.1, 0.5, 1, 5 and 10 μM, followed by incubation for 72 hours at 37° C. incubator with 5% CO2. For inhibitor studies, 10 μM of NBTI or 1 μM EHNA or A-134974 was added and left for 5 minutes before adding the drugs (see section 5 for inhibitor details).
(§7) After incubation, 50 μl of cell lysis reagent was added to the 96 well plates to release the intracellular ATP, followed by 100 μl of ATP monitoring reagent (AMR). The luminescent values of each well were determined using FLUOstar OPTIMA microplate reader (BMG Labtech) which convert ATP into light by using luciferase enzyme. Therefore, the amount of luminescence produced was directly proportional to the amount of ATP.
(§8) Cell lines were treated in the same way as described above but before treatment with drugs, a number of inhibitors were added: • 1) Nitrobenzylthioinosine (NBTI) (Sigma-Aldrich, St. Louis, Mo., product # N2255) blocks nucleoside transporters • 2) EHNA hydrochloride (Sigma-Aldrich, St. Louis, Mo., product # E114) blocks adenosine deaminase • 3) Adenosine kinase inhibitor A-134974 dihydrochloride hydrate (Sigma-Aldrich, St. Louis, Mo., product # A2846): blocks adenosine kinase
(§9) The dose-response curves of cytotoxicity of the drugs was determined using non-linear regression analysis of percentage cell viability versus concentration and EC50 values were obtained. The intracellular assay was conducted in five replicates for each condition. Intracellular assay was determined using paired t test (two-tailed) analysis of 3′ATP/ATP concentration and p-values were obtained. For all the analysis, Prism Software program (GraphPad Software) was used and Microsoft Powerpoint® 2013 was used to plot the results.

Assay [19] concerns K562 (TdT negative). Kind of assay: ATP (ViaLight plus) cytotoxicity assay. The following applies: Homo sapiens, K562, 72 h. Type of assay: cell-based, Human. Here is the method:
as §3, §4, §5, §6, §7, §9

In assay [20] the test system is HL-60 (TdT negative). Kind of assay: ATP (ViaLight plus) cytotoxicity assay. Type of assay: cell-based, Human. To be noted: Homo sapiens, HL-60, 72 h. As for the experimental part: as §3, §4, §5, §6, §7, §9
Assay [21] deals with RL (CRL-2261). Nature of the assay: ATP (ViaLight plus) cytotoxicity assay. Type of assay: cell-based. To be noted: 72 h, CRL (RL, CRL-2261). Here is the method: as §3, §4, §5, §6, §7, §8, §9

One may read the IC50 as the concentration needed to halve the response being measured.

In the case of `C[C@H](NP(=O)(OC[C@@H]1C[C@@H](O)[C@H](n2cnc3c(N)nc(F)nc32)O1)Oc1ccccc1)C(=O)OCc1ccccc1` (mixture of isomers) [P, (2S)-benzyl 2-(((((2S,4R,5R)-5-(6-amino-2-fluoro-9H-purin-9-yl)-4-hydroxytetrahydrofuran-2-yl)methoxy)(phenoxy)phosphoryl)amino)propanoate], the “LSC targeting compared with the parent nucleoside” value in assay [1] is recorded as “significantly improved when compared with the parental nucleoside”. The half-maximal inhibitory concentration (IC50) lay within 0.1 to 5 µM in assay [2] (read-out: IC50 (absolute IC50)); 0.1 to 5 µM in assay [3] (read-out: IC50 (absolute IC50)); 5 to 15 µM in [4] (read-out: IC50 (absolute IC50)); 0.1 to 5 µM in assay [5] (read-out: IC50 (absolute IC50)); 5 to 15 µM in assay [6] (read-out: IC50 (absolute IC50)); 0.1 to 5 µM in assay [7] (read-out: IC50 (absolute IC50)). Moreover, the IC50 in [8] (read-out: IC50 (absolute IC50)), in assay [9] (read-out: IC50 (absolute IC50)) and in assay [10] (read-out: IC50 (absolute IC50)) was 0.1 to 5 µM in each case. Besides, the Emax in assay [2] (read-out: MI %) turned out to be 98%; in [3] (read-out: MI %), 97%; in assay [4] (read-out: MI %), 87%; in assay [5] (read-out: MI %) it was 100%; in assay [6] (read-out: MI %) it was 74%; in assay [7] (read-out: MI %), 95%. Further, the Emax in assay [8] (read-out: MI %) was found to be 99%; in assay [9] (read-out: MI %), 99%; in assay [10] (read-out: MI %), 97%.
Take `C[C@H](NP(=O)(OC[C@@H]1C[C@@H](OP(=O)(N[C@@H](C)C(=O)OCc2ccccc2)Oc2ccccc2)[C@H](n2cnc3c(N)ncnc32)O1)Oc1ccccc1)C(=O)OCc1ccccc1` (stereo partly drawn) [H, Benzyl 2-(((((2S,4R,5R)-5-(6-amino-9H-purin-9-yl)-4-((((1-(benzyloxy)-1-oxopropan-2-yl)amino)(phenoxy)phosphoryl)oxy)tetrahydrofuran-2-yl)methoxy)(phenoxy)phosphoryl)-amino)propanoate]: the concentration for half-maximal inhibition (IC50) in assay [11] was 15 to 100 µM; in assay [12] it was 15 to 100 µM; in assay [13], 15 to 100 µM; in [14] it was 15 to 100 µM; in [15] it was 5 to 15 µM; in [16], 0.1 to 5 µM. Also, the IC50 in [17] was 15 to 100 µM.
In the case of `CCCCCOC(=O)[C@H](CC(C)C)NP(=O)(OC[C@@H]1C[C@@H](O)[C@H](n2cnc3c(N)ncnc32)O1)Oc1cccc2ccccc12` (mixture of isomers) [D, (2S)-pentyl 2-(((((2S,4R,5R)-5-(6-amino-9H-purin-9-yl)-4-hydroxytetrahydrofuran-2-yl)methoxy)(naphthalen-1-yloxy)phosphoryl)amino)-4-methylpentanoate], in assay [18], the “(FD) fold difference compared to Cordycepin = Cordycepin IC50/ProTide IC50” value is “(3)”. The half-inhibitory concentration (IC50) in assay [18] (Homo sapiens, CCRF-CEM, 72 h, 72 hours) is 6.1 µM; in assay [11] it was 5 to 15 µM; in [12], 5 to 15 µM; in [13] it was 5 to 15 µM; in assay [14], 0.1 to 5 µM; in assay [15], 5 to 15 µM. For the same molecule, the IC50 in assay [16] is 0.1 to 5 µM; in [17] it was 5 to 15 µM; in assay [19], 4.2 µM; in assay [20], 5.4 µM; in assay [21], 4.8 µM.
